The assay deals with GTPase KRas (Homo sapiens, UniProt P01116). Briefly: KRAS Biochemical Assay. The procedure: KRAS Biochemical Assay—BODIPY-GDP Exchange TR-FRET. Biochemical compound potencies were assessed by evaluating inhibition of SOS1-mediated nucleotide exchange in KRAS G12D. The SOS1-promoted exchange of fluorescently-labeled GDP (BODIPY-GDP) was monitored by time-resolved fluorescence resonance energy transfer (TR-FRET). Compounds solubilized in DMSO were dispensed as concentration series into 384-well white assay plates. […] The reaction was initiated with the addition of 5 μL of 3 nM recombinant human SOS1 and 300 nM BODIPY-GDP in assay buffer. […] The TR-FRET ratio was determined as the fluorescence at 520 nm divided by the fluorescence at 490 nm multiplied by 10,000. […] The normalized TR-FRET results were plotted against compound concentration, and the data fit to a 4-parameter Hill equation to determine the IC50 values.
Sequence of GTPase KRas (P01116 whole entry): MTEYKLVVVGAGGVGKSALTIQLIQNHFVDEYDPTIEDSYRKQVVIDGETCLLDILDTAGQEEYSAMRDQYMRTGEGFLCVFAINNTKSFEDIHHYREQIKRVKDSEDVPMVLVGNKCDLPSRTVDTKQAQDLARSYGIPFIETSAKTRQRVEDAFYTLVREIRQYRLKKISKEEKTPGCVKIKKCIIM

Molecules are shown by their SMILES.

For `Cc1cc(N)nc(-c2c(Cl)c3c4c(nc(OCC56CC(CO5)C6)nc4c2F)N([C@H](C)c2cccnc2N)CCO3)c1C(F)(F)F` [US20240383915, Example 143], it took 0.87 nM to reach half-maximal inhibition (IC50).
